{"source": "patent US20200290950A1", "about": "“ALKAMIDE COMPOUNDS AND USES THEREOF” (NORTH CAROLINA STATE UNIVERSITY, priority 2017, published 2020)", "test_system": "RBL-2H3 cells", "assay": "Histamine release, competitive EIA", "format": "cell-based, rat", "settings": "RBL-2H3 cells treated with A23187, 1 hr", "procedure": "FIGS. 1A-1F. A15 inhibits BMMC and RBL-2H3 cell degranulation. The structure of alkamide A15 is shown with different functional groups and carbons in the fatty acid chain labeled (FIG. 1A). BMMCs were plated and stimulated 4 hrs later with 1 μM A23187 and the indicated concentrations of A15 or vehicle only. The percent degranulation was measured after 1 hr (FIG. 1B). RBL-2H3 cells were treated with A23187 and the percent degranulation was determined 1 hr later (FIG. 1C) or every 10 min over a 1 hr time course (FIG. 1D). RBL-2H3 cells were plated and incubated for 4 hrs before the media was aspirated and replaced with media containing 1 μg/mL IgE anti-DNP. Cells were incubated overnight and washed prior to stimulation. The percent degranulation from RBL-2H3 cells was calculated after stimulation with 50 ng/mL DNP-HSA in combination with the indicated concentrations of A15 or vehicle only after 1 hr (FIG. 1E). RBL-2H3 cells were stimulated for 1 hr in Tyrode's buffer before supernatants were collected and levels of histamine were measured using a competitive inhibition EIA kit (FIG. 1F). Data shown are the means±SEM from 3-4 independent experiments (FIG. 1B, FIG. 1C and FIG. 1F) or the means±SEM of triplicate wells from a representative experiment from 3 independent experiments (FIG. 1D and FIG. 1E). […]"}
{"smiles": "CCCCCCC/C=C/C=C/C(=O)NCC(C)C", "note": "[A15, (2E,4E)-N-Isobutyldodeca-2,4-dienamide]", "values": [{"measurement": "release of histamine", "result": "inhibited the release of the vasoactive amine histamine"}]}
